Molecules are shown by their SMILES. Where two headings read alike, the source gives them in different places. *1 amine or outer side, *2 acyl side, *3 side chain or, on linkers, in order; H or OH if unused. Where a SMILES comes first, the peptide text is derived from it. Side-chain parts run from the residue outwards. [ ]: non-standard residue; d: D form. The star is where a group is joined. Isobutyryl(2-(3-CN-5-F-Ph)) = CC(C)(C(=O)*)c1cc(F)cc(C#N)c1; C20 diacid = O=C(O)CCCCCCCCCCCCCCCCCCC(=O)*; γGlu = O=C(O)[C@H](CCC(=O)[*:2])N[*:1]; X27 = O=C1CC(C(=O)*)(c2ccccc2)CN1; X60 = O=C(C1(c2cccnc2)CCCC1)*; X24 = O=C(C1(c2cccnc2)CCC1)*; AEEA = NCCOCCOCC(=O)O; Aib = CC(C)(N)C(=O)O; CO = O=C([*:1])[*:2]; X67 = Cc1cccc(N*)c1; GABA = NCCCC(=O)O; βAla = NCCC(=O)O

The target of assay [1] is T1, GIP receptor (Homo sapiens, UniProt P48546).
T1 sequence (P48546 22-466): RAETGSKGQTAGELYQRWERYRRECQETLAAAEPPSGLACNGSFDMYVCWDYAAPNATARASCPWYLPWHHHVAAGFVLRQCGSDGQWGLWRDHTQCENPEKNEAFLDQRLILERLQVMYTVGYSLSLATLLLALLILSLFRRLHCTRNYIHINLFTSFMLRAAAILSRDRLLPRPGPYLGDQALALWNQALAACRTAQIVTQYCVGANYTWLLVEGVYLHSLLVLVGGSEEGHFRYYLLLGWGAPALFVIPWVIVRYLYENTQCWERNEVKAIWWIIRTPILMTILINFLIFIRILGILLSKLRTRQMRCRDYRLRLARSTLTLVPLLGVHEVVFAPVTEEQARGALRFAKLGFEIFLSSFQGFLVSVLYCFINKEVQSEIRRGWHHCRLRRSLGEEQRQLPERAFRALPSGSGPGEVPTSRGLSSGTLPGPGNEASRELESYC
The assay can be described thus: HitHunter cAMP assay, GIP receptor. The conditions noted are these: read-out: Emax GIP-1R. The format is cell-based. (Changes in cAMP serve as a functional read-out for many G protein-coupled receptors.)

Assay [2] addresses GLP-1 receptor (Homo sapiens, UniProt P43220). The experiment in a line: HitHunter cAMP assay, GLP-1 receptor. The format is cell-based. The conditions noted are these: read-out: Emax GLP-1R.
Setting [3] is: CHO cells, cAMP, normalized to maximum signal from GIP (high) and DMSO (low).
Setting [4] is: CHO cells, cAMP, normalized to maximum signal from GLP-1 (high) and DMSO (low).

Sequence of GLP-1 receptor (P43220 24-463): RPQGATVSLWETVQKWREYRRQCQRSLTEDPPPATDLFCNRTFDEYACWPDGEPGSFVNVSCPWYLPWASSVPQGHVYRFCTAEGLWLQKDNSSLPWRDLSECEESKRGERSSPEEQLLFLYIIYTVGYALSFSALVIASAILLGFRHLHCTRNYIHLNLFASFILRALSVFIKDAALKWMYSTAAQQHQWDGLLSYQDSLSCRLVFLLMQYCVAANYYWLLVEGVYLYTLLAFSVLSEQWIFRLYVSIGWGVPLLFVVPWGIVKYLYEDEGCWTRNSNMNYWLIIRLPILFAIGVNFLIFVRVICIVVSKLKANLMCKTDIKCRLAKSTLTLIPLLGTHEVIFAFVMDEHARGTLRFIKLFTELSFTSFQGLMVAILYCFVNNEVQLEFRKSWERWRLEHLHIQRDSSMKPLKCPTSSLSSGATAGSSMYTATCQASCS

As usually defined, the Emax is the maximal effect, on the per cent scale that the assay sets. As to `CC[C@H](C)[C@H](NC(=O)[C@H](CC(C)C)NC(=O)[C@H](Cc1c[nH]c2ccccc12)NC(=O)[C@H](CCC(N)=O)NC(=O)[C@@H](NC(=O)[C@H](Cc1ccccc1)NC(=O)[C@H](C)NC(=O)[C@H](CCCCNC(=O)COCCOCCNC(=O)COCCOCCNC(=O)CC[C@H](NC(=O)CCCCCCCCCCCCCCCCCCC(=O)O)C(=O)O)NC(=O)[C@H](CCC(N)=O)NC(=O)[C@H](C)NC(=O)[C@@H](NC(=O)[C@H](CCCCN)NC(=O)[C@H](CC(=O)O)NC(=O)[C@H](CC(C)C)NC(=O)C(C)(C)NC(=O)[C@@H](NC(=O)[C@H](CO)NC(=O)[C@H](Cc1ccc(O)cc1)NC(=O)[C@H](CC(=O)O)NC(=O)[C@H](CO)NC(=O)[C@@H](NC(=O)[C@H](Cc1ccccc1)NC(=O)[C@@H](NC(=O)CNC(=O)[C@H](CCC(=O)O)NC(=O)CCNC(=O)C(C)(C)c1cc(F)cc(C#N)c1)[C@@H](C)O)[C@@H](C)O)[C@@H](C)CC)[C@@H](C)CC)C(C)C)C(=O)N[C@@H](C)C(=O)NCC(N)=O` [Compound 229] ({Isobutyryl(2-(3-CN-5-F-Ph))-βAla}-EGTFTSDYSI[Aib]LDKIAQK([AEEA-AEEA-γGlu-C20 diacid])AFVQWLIAG-NH2; N-terminus and C-terminus assumed), the figures for the Emax in assay [1] (setting [3]) and in assay [2] (setting [4]) were 107% and 102%, respectively.
Consider `CC[C@H](C)[C@H](NC(=O)[C@H](CC(C)C)NC(=O)[C@H](Cc1c[nH]c2ccccc12)NC(=O)[C@H](CCC(N)=O)NC(=O)[C@@H](NC(=O)[C@H](Cc1ccccc1)NC(=O)[C@H](C)NC(=O)[C@H](CCCCNC(=O)COCCOCCNC(=O)COCCOCCNC(=O)CC[C@H](NC(=O)CCCCCCCCCCCCCCCCCCC(=O)O)C(=O)O)NC(=O)[C@H](CCC(N)=O)NC(=O)[C@H](C)NC(=O)[C@@H](NC(=O)[C@H](CCCCN)NC(=O)[C@H](CC(=O)O)NC(=O)[C@H](CC(C)C)NC(=O)C(C)(C)NC(=O)[C@@H](NC(=O)[C@H](CO)NC(=O)[C@H](Cc1ccc(O)cc1)NC(=O)[C@H](CC(=O)O)NC(=O)[C@H](CO)NC(=O)[C@@H](NC(=O)[C@H](Cc1ccccc1)NC(=O)[C@@H](NC(=O)CNC(=O)[C@H](CCC(=O)O)NC(=O)CCCNC(=O)CNC(=O)Nc1cccc(C)c1)[C@@H](C)O)[C@@H](C)O)[C@@H](C)CC)[C@@H](C)CC)C(C)C)C(=O)N[C@@H](C)C(=O)NCC(=O)NCC(=O)N1CCC[C@H]1C(=O)N[C@@H](CO)C(=O)N[C@@H](CO)C(=O)NCC(=O)N[C@@H](C)C(=O)N1CCC[C@H]1C(=O)N1CCC[C@H]1C(=O)N1CCC[C@H]1C(=O)N[C@@H](CO)C(N)=O` [Compound 258] ({X67-CO}-G[GABA]EGTFTSDYSI[Aib]LDKIAQK([AEEA-AEEA-γGlu-C20 diacid])AFVQWLIAGGPSSGAPPPS-NH2; C-terminus assumed), for which the Emax in assay [1] (CHO) worked out at 101%; in assay [2] (CHO), 100%.
`CC[C@H](C)[C@H](NC(=O)[C@H](CC(C)C)NC(=O)[C@H](Cc1c[nH]c2ccccc12)NC(=O)[C@H](CCC(N)=O)NC(=O)[C@@H](NC(=O)[C@H](Cc1ccccc1)NC(=O)[C@H](C)NC(=O)[C@H](CCCCNC(=O)COCCOCCNC(=O)COCCOCCNC(=O)CC[C@H](NC(=O)CCCCCCCCCCCCCCCCCCC(=O)O)C(=O)O)NC(=O)[C@H](CCC(N)=O)NC(=O)[C@H](C)NC(=O)[C@@H](NC(=O)[C@H](CCCCN)NC(=O)[C@H](CC(=O)O)NC(=O)[C@H](CC(C)C)NC(=O)C(C)(C)NC(=O)[C@@H](NC(=O)[C@H](CO)NC(=O)[C@H](Cc1ccc(O)cc1)NC(=O)[C@H](CC(=O)O)NC(=O)[C@H](CO)NC(=O)[C@@H](NC(=O)[C@H](Cc1ccccc1)NC(=O)[C@@H](NC(=O)CNC(=O)[C@H](CCC(=O)O)NC(=O)CCNC(=O)C1(c2cccnc2)CCCC1)[C@@H](C)O)[C@@H](C)O)[C@@H](C)CC)[C@@H](C)CC)C(C)C)C(=O)N[C@@H](C)C(=O)NCC(=O)NCC(=O)N1CCC[C@H]1C(=O)N[C@@H](CO)C(=O)N[C@@H](CO)C(=O)NCC(=O)N[C@@H](C)C(=O)N1CCC[C@H]1C(=O)N1CCC[C@H]1C(=O)N1CCC[C@H]1C(=O)N[C@@H](CO)C(N)=O` [Compound 256] ({X60-βAla}-EGTFTSDYSI[Aib]LDKIAQK([AEEA-AEEA-γGlu-C20 diacid])AFVQWLIAGGPSSGAPPPS-NH2; C-terminus assumed): the Emax in assay [1] (setting [3]) is 104%; in assay [2] (setting [4]), 98%.
`CC[C@H](C)[C@H](NC(=O)[C@H](CC(C)C)NC(=O)[C@H](Cc1c[nH]c2ccccc12)NC(=O)[C@H](CCC(N)=O)NC(=O)[C@@H](NC(=O)[C@H](Cc1ccccc1)NC(=O)[C@H](C)NC(=O)[C@H](CCCCNC(=O)COCCOCCNC(=O)COCCOCCNC(=O)CC[C@H](NC(=O)CCCCCCCCCCCCCCCCCCC(=O)O)C(=O)O)NC(=O)[C@H](CCC(N)=O)NC(=O)[C@H](C)NC(=O)[C@@H](NC(=O)[C@H](CCCCN)NC(=O)[C@H](CC(=O)O)NC(=O)[C@H](CC(C)C)NC(=O)C(C)(C)NC(=O)[C@@H](NC(=O)[C@H](CO)NC(=O)[C@H](Cc1ccc(O)cc1)NC(=O)[C@H](CC(=O)O)NC(=O)[C@H](CO)NC(=O)[C@@H](NC(=O)[C@H](Cc1ccccc1)NC(=O)[C@@H](NC(=O)CNC(=O)[C@H](CCC(=O)O)NC(=O)CCNC(=O)C1(c2cccnc2)CCC1)[C@@H](C)O)[C@@H](C)O)[C@@H](C)CC)[C@@H](C)CC)C(C)C)C(=O)N[C@@H](C)C(=O)NCC(=O)NCC(=O)N1CCC[C@H]1C(=O)N[C@@H](CO)C(=O)N[C@@H](CO)C(=O)NCC(=O)N[C@@H](C)C(=O)N1CCC[C@H]1C(=O)N1CCC[C@H]1C(=O)N1CCC[C@H]1C(=O)N[C@@H](CO)C(N)=O` [Compound 255] ({X24-βAla}-EGTFTSDYSI[Aib]LDKIAQK([AEEA-AEEA-γGlu-C20 diacid])AFVQWLIAGGPSSGAPPPS-NH2; C-terminus assumed): the Emax in assay [1] (setting [3]) amounted to 99%; in assay [2] (setting [4]) it was 90%.
As for `CC[C@H](C)[C@H](NC(=O)[C@H](CC(C)C)NC(=O)[C@H](Cc1c[nH]c2ccccc12)NC(=O)[C@H](CCC(N)=O)NC(=O)[C@@H](NC(=O)[C@H](Cc1ccccc1)NC(=O)[C@H](C)NC(=O)[C@H](CCCCNC(=O)COCCOCCNC(=O)COCCOCCNC(=O)CC[C@H](NC(=O)CCCCCCCCCCCCCCCCCCC(=O)O)C(=O)O)NC(=O)[C@H](CCC(N)=O)NC(=O)[C@H](C)NC(=O)[C@@H](NC(=O)[C@H](CCCCN)NC(=O)[C@H](CC(=O)O)NC(=O)[C@H](CC(C)C)NC(=O)C(C)(C)NC(=O)[C@@H](NC(=O)[C@H](CO)NC(=O)[C@H](Cc1ccc(O)cc1)NC(=O)[C@H](CC(=O)O)NC(=O)[C@H](CO)NC(=O)[C@@H](NC(=O)[C@H](Cc1ccccc1)NC(=O)[C@@H](NC(=O)CNC(=O)[C@H](CCC(=O)O)NC(=O)CCNC(=O)C1(c2cccnc2)CCCC1)[C@@H](C)O)[C@@H](C)O)[C@@H](C)CC)[C@@H](C)CC)C(C)C)C(=O)N[C@@H](C)C(=O)NCC(N)=O` [Compound 227] ({X60-βAla}-EGTFTSDYSI[Aib]LDKIAQK([AEEA-AEEA-γGlu-C20 diacid])AFVQWLIAG-NH2; N-terminus and C-terminus assumed), the Emax was 112% in assay [1] (setting [3]) and 102% in assay [2] (setting [4]).
For `CC[C@H](C)[C@H](NC(=O)[C@H](CC(C)C)NC(=O)[C@H](Cc1c[nH]c2ccccc12)NC(=O)[C@H](CCC(N)=O)NC(=O)[C@@H](NC(=O)[C@H](Cc1ccccc1)NC(=O)[C@H](C)NC(=O)[C@H](CCCCNC(=O)COCCOCCNC(=O)COCCOCCNC(=O)CC[C@H](NC(=O)CCCCCCCCCCCCCCCCCCC(=O)O)C(=O)O)NC(=O)[C@H](CCC(N)=O)NC(=O)[C@H](C)NC(=O)[C@@H](NC(=O)[C@H](CCCCN)NC(=O)[C@H](CC(=O)O)NC(=O)[C@H](CC(C)C)NC(=O)C(C)(C)NC(=O)[C@@H](NC(=O)[C@H](CO)NC(=O)[C@H](Cc1ccc(O)cc1)NC(=O)[C@H](CC(=O)O)NC(=O)[C@H](CO)NC(=O)[C@@H](NC(=O)[C@H](Cc1ccccc1)NC(=O)[C@@H](NC(=O)CNC(=O)[C@H](CCC(=O)O)NC(=O)CCNC(=O)C1(c2ccccc2)CNC(=O)C1)[C@@H](C)O)[C@@H](C)O)[C@@H](C)CC)[C@@H](C)CC)C(C)C)C(=O)N[C@@H](C)C(=O)NCC(=O)NCC(=O)N1CCC[C@H]1C(=O)N[C@@H](CO)C(=O)N[C@@H](CO)C(=O)NCC(=O)N[C@@H](C)C(=O)N1CCC[C@H]1C(=O)N1CCC[C@H]1C(=O)N1CCC[C@H]1C(=O)N[C@@H](CO)C(N)=O` (stereo partly drawn) [Compound 250] ({X27-βAla}-EGTFTSDYSI[Aib]LDKIAQK([AEEA-AEEA-γGlu-C20 diacid])AFVQWLIAGGPSSGAPPPS-NH2; C-terminus assumed), in that order: 89% and 90%.

The record behind these values is patent publication US12281149B2, “Modulators of G-protein coupled receptors” (priority 2021, dated 2025).
